Biological target: Matrix protein 2 (Influenza A virus (A/Udorn/307/1972(H3N2)), UniProt P0DOF8, V27A)

NC1CC[Si]2(CCCC2)CC1
IC50: 96.3 µM

NC1CCC2(CCCC2)CC1
IC50: 319 µM
